Where two headings read alike, the source gives them in different places.
Key:
[1] = biological target: T1, GluG R encoded by clone 45-A (Rattus norvegicus, UniProt P23385); assay type: cell-based
T1 construct: expressed in transfected cells; host or cells: Xenopus oocytes injected with RNA transcribed in vitro from clone 45-A

[2] = biological target: T1, GluG R encoded by clone 45-A; experiment: Voltage clamp assay of inhibition of glutamic acid-evoked current in injected oocytes; assay type: cell-based; settings: 1 mM DL-AP3; 10 μM glutamic acid; read-out: current evoked by 10 μM glutamic acid, % of the control
Method: Voltage clamp assays were also carried out on injected oocytes to measure the inhibition by the putative glutamate G protein coupled receptor antagonist, 2-amino-3-phosphonopropionic acid (AP3).

GluG R = experiment: Voltage-clamp recording of oocytes injected with RNA from positive pools of the cerebellum library; assay type: cell-based, rat; settings: oocyte injected with RNA from subfractionated pool of 14,000 colonies, approximately 100 ng RNA
Method: Plasmid DNA prepared from each of the 10 pools of 100,000 clones, which in total represented one sublibrary of one million clones of the cerebellum cDNA library, was purified by cesium chloride gradient ultracentrifugation. The DNA was transcribed in vitro with T7 RNA polymerase (Pharmacia) in the presence of capped nucleotide (GpppG, Pharamcia). […] The transcription reaction tubes were set up by adding 12 μl of 5× transcription buffer (Stratagene Cloning Systems, La Jolla, Calif.), 3 μl each of 10 mM ATP, CTP, GTP, and UTP, 6 μl of 10 mM GpppG (Pharmacia), 6 μl of 1 mg/ml BSA, 3 μl of 200 mM DTT, 1.5 μl of 40 U/μl RNasin (ProMega Biotech, Madison, Wis.), 8.5 μl of water, 10 μl of cDNA containing 5 to 10 μg DNA, and 1 μl of 70 U/μl T7 RNA polymerase. […] Forty microliters of water was added to the radiolabeled reactions, and 1 μl was removed from each sample and counted to determine total counts. […] The samples were centrifuged to collect the RNA and the RNA pellets were counted to determine the counts incorporated into RNA. […]
The RNA from each of the 10 sublibraries were injected into oocytes as described above and translation was allowed for four days. Expression of GluG R activity was assessed by voltage-clamp assay as described above. […]

[3] = test system: rat G protein coupled glutamate receptor; experiment: Competition of quisqualate with tritiated glutamic acid on membranes of transfected BHK cells; assay type: binding; settings: membranes of BHK 570 and BHK TK^- ts13 clones
Method: Transfected cell lines expressing GluG R were identified by the binding of ^3 H-glutamate to membrane preparations from transfected cells. Cell lines expressing low to moderate levels of GluG R are used to set up functional screening assays.
Clones of BHK 570 and BHK TK^- ts13 cells expressing the rat G protein coupled glutamate receptor cDNA were plated in two or three 150 mm maxi-plates culture dishes and were grown to confluency. The cells from each plate were scraped in 5 ml of PBS (phosphate buffered saline, Sigma Chemical Co., St. Louis, Mo.), which was pre-chilled to 4° C. The cells were removed to a chilled centrifuged tube, and the plates were each rinsed with 5 ml of chilled PBS and pooled with the cells. The chilled tubes were spun at 1,000 rpm for two minutes, and the supernatant was discarded. The cells were frozen at either -70° C. or on dry ice. In some cases, the cells were left overnight at -70° C. […] The filters were dried in a microwave oven and counted in a […].
Protein determinations were carried out using a Coomassie Blue-based assay from Pierce Chemical Company (Rockford, Ill.) under conditions set forth by the manufacturer. One hundred microliters of undiluted cell homogenate or BSA standard was added to 2 ml of reagent and the optical density was measured at 595 nm. […]

[4] = 100 μM, saturating concentration

T1 sequence (P23385 19-1199): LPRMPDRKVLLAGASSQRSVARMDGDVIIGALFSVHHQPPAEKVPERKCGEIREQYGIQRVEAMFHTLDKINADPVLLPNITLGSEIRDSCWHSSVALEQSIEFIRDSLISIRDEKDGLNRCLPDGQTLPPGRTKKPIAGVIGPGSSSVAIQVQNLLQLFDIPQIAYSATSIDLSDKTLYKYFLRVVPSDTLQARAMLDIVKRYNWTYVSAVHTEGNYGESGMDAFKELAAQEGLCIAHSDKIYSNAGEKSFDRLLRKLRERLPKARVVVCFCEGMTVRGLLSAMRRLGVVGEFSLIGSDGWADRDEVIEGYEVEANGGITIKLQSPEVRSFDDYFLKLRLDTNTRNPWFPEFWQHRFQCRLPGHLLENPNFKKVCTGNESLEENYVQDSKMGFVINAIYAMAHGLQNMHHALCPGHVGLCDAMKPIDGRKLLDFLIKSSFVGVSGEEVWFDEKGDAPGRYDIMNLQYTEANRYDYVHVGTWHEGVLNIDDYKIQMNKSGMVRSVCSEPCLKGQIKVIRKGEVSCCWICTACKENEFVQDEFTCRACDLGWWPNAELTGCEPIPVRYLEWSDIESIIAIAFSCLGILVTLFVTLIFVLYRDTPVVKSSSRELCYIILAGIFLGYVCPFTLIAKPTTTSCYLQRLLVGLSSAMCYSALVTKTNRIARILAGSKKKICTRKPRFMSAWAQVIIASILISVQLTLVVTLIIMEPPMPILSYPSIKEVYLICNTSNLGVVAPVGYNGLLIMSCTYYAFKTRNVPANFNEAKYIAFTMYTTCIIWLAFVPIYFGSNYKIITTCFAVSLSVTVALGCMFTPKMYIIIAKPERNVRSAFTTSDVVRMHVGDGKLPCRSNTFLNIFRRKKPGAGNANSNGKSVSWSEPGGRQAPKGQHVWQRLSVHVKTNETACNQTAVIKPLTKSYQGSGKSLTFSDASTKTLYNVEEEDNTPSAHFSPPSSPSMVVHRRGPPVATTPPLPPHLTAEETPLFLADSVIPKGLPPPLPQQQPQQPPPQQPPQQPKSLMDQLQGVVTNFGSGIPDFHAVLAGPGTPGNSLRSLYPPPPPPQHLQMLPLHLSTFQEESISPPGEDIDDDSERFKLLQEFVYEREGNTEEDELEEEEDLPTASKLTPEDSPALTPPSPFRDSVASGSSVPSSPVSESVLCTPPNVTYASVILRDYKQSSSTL

SMILES: Cc1onc(O)c1CC(N)C(=O)O (stereo not drawn) [AMPA, α-amino-3-hydroxy-5-methyl-isoxazole-4-propionic acid]
- response relative to 100 μM L-glutamate [1, 4]: ineffective

SMILES: CN[C@H](CC(=O)O)C(=O)O [NMDA, N-methyl-D-aspartic acid]
- response relative to 100 μM L-glutamate ([1]; 100 μM NMDA+10 μM glycine): ineffective

SMILES: NC(CCP(=O)(O)O)C(=O)O (centres unmarked) [APB, 2-amino-4-phosphonobytyric acid]
- response relative to 100 μM L-glutamate [1, 4]: ineffective

SMILES: NC(CP(=O)(O)O)C(=O)O (racemic) [DL-AP3, 2-amino-3-phosphonopropionic acid]
- remaining activity at 1000 µM [2]: 59.3 ± 7.3%

SMILES: C=C(C)[C@H]1CN[C@H](C(=O)O)[C@H]1CC(=O)O [kainic acid]
- response relative to 100 μM L-glutamate ([1]; 1 mM, saturating concentration): ineffective

SMILES: N[C@@H](CC(=O)O)C(=O)O [aspartic acid]
- response relative to 100 μM L-glutamate ([1]; 1 mM, saturating concentration): ineffective

SMILES: N[C@@H](Cn1oc(=O)[nH]c1=O)C(=O)O [Quisqualic acid, quisqualic acid]
- actual peak current in response to quisqualate (estimated from a digital panel meter) (GluG R): approximately 1300 nA
- competitive binding to the glutamate receptor expressed by transfected BHK cells [3]: able to competitively bind

Reference: patent US5869609A, “G protein coupled glutamate receptors” (priority 1995, dated 1999)
